Assay results taken from ChEMBL document CHEMBL3046898, “Synthesis and characterization of flurbiprofen hydrazide derivatives as potential anti-HCV, anticancer and antimicrobial agents” (2013).
The source made the active and inactive calls. No cut-off for these calls is given here.

Key:
Micrococcus lylae [1] = test: Antibacterial activity against Micrococcus lylae at 6.25 to 200 ug/ml after 24 hrs by microwell dilution method; format: functional, organism-based
Pseudomonas aeruginosa [2] = test: Antibacterial activity against Pseudomonas aeruginosa at 6.25 to 200 ug/ml after 24 hrs by microwell dilution method; format: functional, organism-based
Proteus vulgaris [3] = test: Antibacterial activity against Proteus vulgaris at 6.25 to 200 ug/ml after 24 hrs by microwell dilution method; format: functional, organism-based
Escherichia coli [4] = test: Antibacterial activity against Escherichia coli at 6.25 to 200 ug/ml after 24 hrs by microwell dilution method; format: functional, organism-based
Staphylococcus cohnii [5] = test: Antibacterial activity against Staphylococcus cohnii at 6.25 to 200 ug/ml after 24 hrs by microwell dilution assay; format: functional, organism-based
Staphylococcus aureus [6] = test: Antibacterial activity against Staphylococcus aureus at 6.25 to 200 ug/ml after 24 hrs by microwell dilution assay; format: functional, organism-based
Micrococcus luteus [7] = test: Antibacterial activity against Micrococcus luteus at 6.25 to 200 ug/ml after 24 hrs by microwell dilution method; format: functional, organism-based
Aspergillus = test: Antifungal activity against Aspergillus at 10 mg/ml after 72 hrs by disc diffusion method; format: functional, organism-based
Pichia membranifaciens = test: Antifungal activity against Pichia membranifaciens at 10 mg/ml after 48 hrs by disc diffusion method; format: functional, organism-based
Kluyveromyces marxianus = test: Antifungal activity against Kluyveromyces marxianus at 10 mg/ml after 48 hrs by disc diffusion method; format: functional, organism-based
[8] = tested on: Schwanniomyces occidentalis; test: Antifungal activity against Schwanniomyces occidentalis at 10 mg/ml after 48 hrs by disc diffusion method; format: functional, organism-based
Nakaseomyces glabratus = test: Antifungal activity against Candida glabrata at 10 mg/ml after 48 hrs by disc diffusion method; format: functional, organism-based
Candida parapsilosis = test: Antifungal activity against Candida parapsilosis at 10 mg/ml after 48 hrs by disc diffusion method; format: functional, organism-based
Candida tropicalis = test: Antifungal activity against Candida tropicalis at 10 mg/ml after 48 hrs by disc diffusion method; format: functional, organism-based
Candida albicans = test: Antifungal activity against Candida albicans at 10 mg/ml after 48 hrs by disc diffusion method; format: functional, organism-based
Photorhabdus luminescens [9] = test: Antibacterial activity against Photorhabdus luminescens at 10 mg/ml after 24 hrs by disc diffusion method; format: functional, organism-based
Klebsiella aerogenes [10] = test: Antibacterial activity against Enterobacter aerogenes at 6.25 to 200 ug/ml after 24 hrs by microwell dilution method; format: functional, organism-based
Photorhabdus luminescens [11] = test: Antibacterial activity against Photorhabdus luminescens at 6.25 to 200 ug/ml after 24 hrs by microwell dilution method; format: functional, organism-based
[12] = tested on: Acinetobacter radioresistens; test: Antibacterial activity against Acinetobacter radioresistens at 6.25 to 200 ug/ml after 24 hrs by microwell dilution method; format: functional, organism-based
Salmonella paratyphi [13] = test: Antibacterial activity against Salmonella paratyphi at 6.25 to 200 ug/ml after 24 hrs by microwell dilution method; format: functional, organism-based; settings: Salmonella enterica subsp. enterica serovar Paratyphi A
Klebsiella aerogenes [14] = test: Antibacterial activity against Enterobacter aerogenes at 10 mg/ml after 24 hrs by disc diffusion method; format: functional, organism-based
[15] = tested on: Acinetobacter radioresistens; test: Antibacterial activity against Acinetobacter radioresistens at 10 mg/ml after 24 hrs by disc diffusion method; format: functional, organism-based
Salmonella paratyphi [16] = test: Antibacterial activity against Salmonella paratyphi at 10 mg/ml after 24 hrs by disc diffusion method; format: functional, organism-based; settings: Salmonella enterica subsp. enterica serovar Paratyphi A
Micrococcus lylae [17] = test: Antibacterial activity against Micrococcus lylae at 10 mg/ml after 24 hrs by disc diffusion method; format: functional, organism-based
Pseudomonas aeruginosa [18] = test: Antibacterial activity against Pseudomonas aeruginosa at 10 mg/ml after 24 hrs by disc diffusion method; format: functional, organism-based
Escherichia coli [19] = test: Antibacterial activity against Escherichia coli at 10 mg/ml after 24 hrs by disc diffusion method; format: functional, organism-based
Proteus vulgaris [20] = test: Antibacterial activity against Proteus vulgaris at 10 mg/ml after 24 hrs by disc diffusion method; format: functional, organism-based
Micrococcus luteus [21] = test: Antibacterial activity against Micrococcus luteus at 10 mg/ml after 24 hrs by disc diffusion method; format: functional, organism-based
Staphylococcus aureus [22] = test: Antibacterial activity against Staphylococcus aureus at 10 mg/ml after 24 hrs by disc diffusion method; format: functional
Staphylococcus cohnii [23] = test: Antibacterial activity against Staphylococcus cohnii at 10 mg/ml after 24 hrs by disc diffusion method; format: functional
Hepacivirus hominis = test: Inhibition of HCV N-terminal His-tagged NS5B RNA dependent RNA polymerase expressed in Escherichia coli DH5alpha using poly rA/U12 as primer at 200 uM after 60 mins by liquid scintillation counting

Structure (SMILES) | Activity (Micrococcus lylae [1]) | Activity (Pseudomonas aeruginosa [2]) | Activity (Proteus vulgaris [3]) | Activity (Escherichia coli [4]) | Activity (Staphylococcus cohnii [5]) | Activity (Staphylococcus aureus [6]) | Activity (Micrococcus luteus [7]) | Activity (Aspergillus) | Activity (Pichia membranifaciens) | Activity (Kluyveromyces marxianus) | Activity [8] | Activity (Nakaseomyces glabratus) | Activity (Candida parapsilosis) | Activity (Candida tropicalis) | Activity (Candida albicans) | Activity (Photorhabdus luminescens [9]) | Activity (Klebsiella aerogenes [10]) | Activity (Photorhabdus luminescens [11]) | Activity [12] | Activity (Salmonella paratyphi [13]) | further results
CC(C(=O)NN1C(=O)CSC1c1ccccc1F)c1ccc(-c2ccccc2)c(F)c1 (configuration not stated) | inactive | inactive | inactive | inactive | inactive | inactive | inactive | inactive | inactive | inactive | inactive | inactive | inactive | inactive | inactive | inactive | inactive | inactive | inactive | inactive | Activity (Klebsiella aerogenes [14]): inactive; Activity [15]: inactive; Activity (Salmonella paratyphi [16]): inactive; Activity (Micrococcus lylae [17]): inactive; Activity (Pseudomonas aeruginosa [18]): inactive; Activity (Escherichia coli [19]): inactive; Activity (Proteus vulgaris [20]): inactive; Activity (Micrococcus luteus [21]): inactive; Activity (Staphylococcus aureus [22]): inactive; Activity (Staphylococcus cohnii [23]): inactive; inhibition (Hepacivirus hominis): 8%
CC(C(=O)N/N=C/c1ccc(F)cc1)c1ccc(-c2ccccc2)c(F)c1 (configuration not stated) | inactive | inactive | inactive | inactive | inactive | inactive | inactive | inactive | inactive | inactive | inactive | inactive | inactive | inactive | inactive | inactive | inactive | inactive | inactive | inactive | Activity (Klebsiella aerogenes [14]): inactive; Activity [15]: inactive; Activity (Salmonella paratyphi [16]): inactive; Activity (Micrococcus lylae [17]): inactive; Activity (Pseudomonas aeruginosa [18]): inactive; Activity (Escherichia coli [19]): inactive; Activity (Proteus vulgaris [20]): inactive; Activity (Micrococcus luteus [21]): inactive; Activity (Staphylococcus aureus [22]): inactive; Activity (Staphylococcus cohnii [23]): inactive; inhibition (Hepacivirus hominis): 8%
CNC(=S)NNC(=O)C(C)c1ccc(-c2ccccc2)c(F)c1 (configuration not stated) | inactive | inactive | inactive | inactive | inactive | inactive | inactive | inactive | inactive | inactive | inactive | inactive | inactive | inactive | inactive | inactive | inactive | inactive | inactive | inactive | Activity (Klebsiella aerogenes [14]): inactive; Activity [15]: inactive; Activity (Salmonella paratyphi [16]): inactive; Activity (Micrococcus lylae [17]): inactive; Activity (Pseudomonas aeruginosa [18]): inactive; Activity (Escherichia coli [19]): inactive; Activity (Proteus vulgaris [20]): inactive; Activity (Micrococcus luteus [21]): inactive; Activity (Staphylococcus aureus [22]): inactive; Activity (Staphylococcus cohnii [23]): inactive; inhibition (Hepacivirus hominis): 8%
CC(C(=O)NN1C(=O)CSC1c1ccc([N+](=O)[O-])cc1)c1ccc(-c2ccccc2)c(F)c1 (configuration not stated) | inactive | inactive | inactive | inactive | inactive | inactive | inactive | inactive | inactive | inactive | inactive | inactive | inactive | inactive | inactive | inactive | inactive | inactive | inactive | inactive | Activity (Klebsiella aerogenes [14]): inactive; Activity [15]: inactive; Activity (Salmonella paratyphi [16]): inactive; Activity (Micrococcus lylae [17]): inactive; Activity (Pseudomonas aeruginosa [18]): inactive; Activity (Escherichia coli [19]): inactive; Activity (Proteus vulgaris [20]): inactive; Activity (Micrococcus luteus [21]): inactive; Activity (Staphylococcus aureus [22]): inactive; Activity (Staphylococcus cohnii [23]): inactive; inhibition (Hepacivirus hominis): 8%
CC(C(=O)N/N=C/c1ccc([N+](=O)[O-])cc1)c1ccc(-c2ccccc2)c(F)c1 (configuration not stated) | inactive | inactive | inactive | inactive | inactive | inactive | inactive | inactive | inactive | inactive | inactive | inactive | inactive | inactive | inactive | inactive | inactive | inactive | inactive | inactive | Activity (Klebsiella aerogenes [14]): inactive; Activity [15]: inactive; Activity (Salmonella paratyphi [16]): inactive; Activity (Micrococcus lylae [17]): inactive; Activity (Pseudomonas aeruginosa [18]): inactive; Activity (Escherichia coli [19]): inactive; Activity (Proteus vulgaris [20]): inactive; Activity (Micrococcus luteus [21]): inactive; Activity (Staphylococcus aureus [22]): inactive; Activity (Staphylococcus cohnii [23]): inactive; inhibition (Hepacivirus hominis): 8%
CC(C(=O)NN1C(=O)CSC1c1ccc(F)cc1)c1ccc(-c2ccccc2)c(F)c1 (configuration not stated) | inactive | inactive | inactive | inactive | inactive | inactive | inactive | inactive | inactive | inactive | inactive | inactive | inactive | inactive | inactive | inactive | inactive | inactive | inactive | inactive | Activity (Klebsiella aerogenes [14]): inactive; Activity [15]: inactive; Activity (Salmonella paratyphi [16]): inactive; Activity (Micrococcus lylae [17]): inactive; Activity (Pseudomonas aeruginosa [18]): inactive; Activity (Escherichia coli [19]): inactive; Activity (Proteus vulgaris [20]): inactive; Activity (Micrococcus luteus [21]): inactive; Activity (Staphylococcus aureus [22]): inactive; Activity (Staphylococcus cohnii [23]): inactive; inhibition (Hepacivirus hominis): 8%
CCNC(=S)NNC(=O)C(C)c1ccc(-c2ccccc2)c(F)c1 (configuration not stated) | inactive | inactive | inactive | inactive | inactive | inactive | inactive | inactive | inactive | inactive | inactive | inactive | inactive | inactive | inactive | inactive | inactive | inactive | inactive | inactive | Activity (Klebsiella aerogenes [14]): inactive; Activity [15]: inactive; Activity (Salmonella paratyphi [16]): inactive; Activity (Micrococcus lylae [17]): inactive; Activity (Pseudomonas aeruginosa [18]): inactive; Activity (Escherichia coli [19]): inactive; Activity (Proteus vulgaris [20]): inactive; Activity (Micrococcus luteus [21]): inactive; Activity (Staphylococcus aureus [22]): inactive; Activity (Staphylococcus cohnii [23]): inactive; inhibition (Hepacivirus hominis): 8%
